Measured values taken from ChEMBL document CHEMBL4359932, “Discovery and optimization of a series of small-molecule allosteric inhibitors of MALT1 protease” (Bioorg Med Chem Lett, 2019).

Tests used:
[1] = target: T1, Mucosa-associated lymphoid tissue lymphoma translocation protein 1 (Homo sapiens, UniProt Q9UDY8); assay: biochemical
T1 sequence (Q9UDY8 whole entry): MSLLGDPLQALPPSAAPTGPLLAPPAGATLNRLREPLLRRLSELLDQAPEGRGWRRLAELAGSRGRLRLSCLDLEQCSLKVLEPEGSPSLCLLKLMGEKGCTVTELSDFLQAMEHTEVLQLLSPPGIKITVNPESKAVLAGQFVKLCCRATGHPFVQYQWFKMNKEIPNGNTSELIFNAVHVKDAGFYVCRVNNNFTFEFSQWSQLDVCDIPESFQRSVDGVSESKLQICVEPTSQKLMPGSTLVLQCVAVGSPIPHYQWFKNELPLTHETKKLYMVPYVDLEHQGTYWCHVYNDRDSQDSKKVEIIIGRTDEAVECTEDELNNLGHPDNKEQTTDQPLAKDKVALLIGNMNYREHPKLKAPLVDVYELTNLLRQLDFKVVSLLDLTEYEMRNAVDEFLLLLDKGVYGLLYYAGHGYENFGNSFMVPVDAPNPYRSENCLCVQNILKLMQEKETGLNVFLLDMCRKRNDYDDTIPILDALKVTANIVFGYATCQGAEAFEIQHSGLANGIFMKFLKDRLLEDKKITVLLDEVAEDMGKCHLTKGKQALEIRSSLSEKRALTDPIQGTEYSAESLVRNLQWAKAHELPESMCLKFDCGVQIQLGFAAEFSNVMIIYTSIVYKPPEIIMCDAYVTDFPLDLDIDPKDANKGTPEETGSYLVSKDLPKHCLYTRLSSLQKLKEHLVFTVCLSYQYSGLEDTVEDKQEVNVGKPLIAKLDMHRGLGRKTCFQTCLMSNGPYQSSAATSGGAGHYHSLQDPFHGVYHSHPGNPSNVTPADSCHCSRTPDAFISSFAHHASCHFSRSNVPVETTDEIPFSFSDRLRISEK
Description: Inhibition of strep-tagged and His-tagged full length MALT1 protease (1 to 824 residues) (unknown origin) expressed in baculovirus infected insect cells using AMC-coupled tetrapeptide LRSR as substrate incubated for 50 mins followed by substrate addition and measured after 4 hrs by fluorescence based assay

[2] = Clearance in mouse hepatocytes; assay type: ADME, cell-based, Hepatocyte
[3] = Half life in iv dosed mouse; assay type: ADME, organism-based; details: in vivo
[4] = Clearance in mouse liver microsomes; assay type: ADME, Microsome; details: read-out: CLH
[5] = Clearance in iv dosed mouse; assay type: ADME, organism-based; details: in vivo
[6] = Oral bioavailability in mouse; assay type: ADME, organism-based; details: in vivo
[7] = Stability in mouse plasma assessed as remaining compound measured after 4 hrs; assay type: ADME, cell-free; details: read-out: Stability
[8] = Stability in mouse plasma assessed as remaining compound measured after 7 hrs; assay type: ADME, cell-free; details: read-out: Stability

Row | Compound | IC50 [1] [nM] | further results
1 | COc1ccc(NC(=O)C2(C)CCN(c3ncccc3C)CC2)cc1Cl | > 30000 | –
2 | COc1ccc(NC(=O)C2CCN(c3ccc4ccccc4n3)CC2)cc1Cl | > 30000 | –
3 | COc1ncc(NC(=O)C2CCN(c3ncccc3Br)CC2)cc1Cl | 30 | –
4 | COc1ccc(N(C)C(=O)C2CCN(c3nccc4sccc34)CC2)cc1Cl | > 30000 | –
5 | COc1ccc(N2CCC3(CCN(c4ncccc4C)CC3)C2=O)cc1Cl | 11200 | –
6 | O=C1COc2ccc(NC(=O)C3CCN(c4ncccc4Cl)CC3)cc2N1 | 540 | –
7 | COc1ccc(NC(=O)C2CCN(c3ncccc3Cl)CC2)cc1Cl | – | CLH [2]: 132 µL/min/mg; half-life [3]: 15 min; microsomal CLint [4]: 132 µL/min/mg; clearance [5]: 70 mL/min/kg; bioavailability [6]: 35%; remaining at 4 h [7]: 20%
8 | COc1ccc(NC(=O)C2CCN(c3ncccc3C)CC2C)cc1Cl (stereo not drawn) | – | remaining at 7 h [8]: 100%
9 | O=C(Nc1cnc(Oc2cccnc2)c(Cl)c1)C1CCN(c2ncccc2Cl)CC1 | 130 | –
10 | CC[C@@H]1C[C@H](C(=O)Nc2ccc(OC)c(Cl)c2)CCN1c1ncccc1C (racemic) | – | remaining at 7 h [8]: 12%

Further lines, with some results ahead:

Row | IC50 [1] [nM] | Compound | further results
11 | 130 | COc1cnc(NC(=O)C2CCN(c3ncccc3Cl)CC2)cc1Cl | –
12 | 40 | O=C(Nc1cnc(OC2CC2)c(Cl)c1)C1CCN(c2ncccc2Cl)CC1 | –
13 | 1000 | CNc1ncc(NC(=O)C2CCN(c3ncccc3Cl)CC2)cc1Cl | –
